Columns and labels:
Type in all cases: in vivo
[1] = tested on: Setaria faberi (SETFA); test: Pre-emergence herbicidal glasshouse test; details: sprayed after one day cultivation, 250 g/ha, evaluated after 13 days, five-point scale
Protocol: (§1) Seeds of a variety of test species are sown in standard soil in pots Amaranthus retoflexus (AMARE), Echinochloa crus-galli (ECHCG), Setaria faberi (SETFA)). After cultivation for one day (pre-emergence) or after 8 days cultivation (post-emergence) under controlled conditions in a glasshouse (at 24/16° C., day/night; 14 hours light; 65% humidity), the plants are sprayed with an aqueous spray solution derived from the formulation of the technical active ingredient in acetone/water (50:50) solution containing 0.5% Tween™ 20 (polyoxyethylene sorbitan monolaurate, CAS RN 9005-64-5). Compounds are applied at 250 g/ha unless otherwise stated. The test plants are then grown in a glasshouse under controlled conditions in a glasshouse (at 24/16° C., day/night; 14 hours light; 65% humidity) and watered twice daily. After 13 days for pre- and post-emergence, the test is evaluated for the percentage damage caused to the plant. The biological activities are shown in the following table on a five-point scale (5=81-100%; 4=61-80%; 3=41-60%; 2=21-40%; 1=0-20%).

[2] = tested on: Amaranthus retoflexus (AMARE); test: Pre-emergence herbicidal glasshouse test; details: sprayed after one day cultivation, 250 g/ha, evaluated after 13 days, five-point scale
Protocol: as §1

[3] = tested on: Echinochloa crus-galli (ECHCG); test: Pre-emergence herbicidal glasshouse test; details: sprayed after one day cultivation, 250 g/ha, evaluated after 13 days, five-point scale
Protocol: as §1

[4] = tested on: Setaria faberi (SETFA); test: Post-emergence herbicidal glasshouse test; details: sprayed after 8 days cultivation, 250 g/ha, evaluated after 13 days, five-point scale
Protocol: as §1

[5] = tested on: Amaranthus retoflexus (AMARE); test: Post-emergence herbicidal glasshouse test; details: sprayed after 8 days cultivation, 250 g/ha, evaluated after 13 days, five-point scale
Protocol: as §1

[6] = tested on: Echinochloa crus-galli (ECHCG); test: Post-emergence herbicidal glasshouse test; details: sprayed after 8 days cultivation, 250 g/ha, evaluated after 13 days, five-point scale
Protocol: as §1

SMILES	percentage damage caused to the plant, SETFA [1]	percentage damage caused to the plant, AMARE [2]	percentage damage caused to the plant, ECHCG [3]	percentage damage caused to the plant, SETFA [4]	percentage damage caused to the plant, AMARE [5]	percentage damage caused to the plant, ECHCG [6]
Fc1cccc(Oc2ncc(C(F)F)s2)c1-c1cc(C(F)F)no1 [Compound 1.001, 3-(difluoromethyl)-5-[2-[5-(difluoromethyl)thiazol-2-yl]oxy-6-fluoro-phenyl]isoxazole]	5 (5=81-100%)	5 (5=81-100%)	5 (5=81-100%)	5 (5=81-100%)	5 (5=81-100%)	5 (5=81-100%)
C=Cc1cnc(Oc2cccc(F)c2-c2cc(C(F)F)no2)s1 [Compound 1.002, 3-(difluoromethyl)-5-[2-fluoro-6-(5-vinylthiazol-2-yl)oxy-phenyl]isoxazole]	2 (2=21-40%)	1 (1=0-20%)	4 (4=61-80%)	4 (4=61-80%)	2 (2=21-40%)	4 (4=61-80%)
Fc1cccc(Oc2nccs2)c1-c1cc(C(F)F)no1 [Compound 1.003]	2 (2=21-40%)	5 (5=81-100%)	2 (2=21-40%)	2 (2=21-40%)	2 (2=21-40%)	1 (1=0-20%)
Fc1cccc(Oc2ncc(Br)s2)c1-c1cc(C(F)F)no1 [Compound 1.004, 5-[2-(5-bromothiazol-2-yl)oxy-6-fluoro-phenyl]-3-(difluoromethyl)isoxazole]	5 (5=81-100%)	5 (5=81-100%)	4 (4=61-80%)	5 (5=81-100%)	5 (5=81-100%)	5 (5=81-100%)
Cc1cnc(Oc2cccc(F)c2-c2cc(C(F)F)no2)s1 [Compound 1.005, 3-(difluoromethyl)-5-[2-fluoro-6-(5-methylthiazol-2-yl)oxy-phenyl]isoxazole]	4 (4=61-80%)	5 (5=81-100%)	3 (3=41-60%)	4 (4=61-80%)	4 (4=61-80%)	4 (4=61-80%)
Fc1cccc(Oc2ncc(Cl)s2)c1-c1cc(C(F)F)no1 [Compound 1.006]	5 (5=81-100%)	5 (5=81-100%)	5 (5=81-100%)	5 (5=81-100%)	5 (5=81-100%)	4 (4=61-80%)
Fc1cccc(Oc2nc(Br)cs2)c1-c1cc(C(F)F)no1 [Compound 1.007]	5 (5=81-100%)	5 (5=81-100%)	3 (3=41-60%)	5 (5=81-100%)	5 (5=81-100%)	4 (4=61-80%)
Fc1cccc(Oc2nc(Cl)cs2)c1-c1cc(C(F)F)no1 [Compound 1.008]	3 (3=41-60%)	3 (3=41-60%)	1 (1=0-20%)	1 (1=0-20%)	4 (4=61-80%)	2 (2=21-40%)
Fc1cccc(Oc2nc(C(F)F)cs2)c1-c1cc(C(F)F)no1 [Compound 1.009]	5 (5=81-100%)	4 (4=61-80%)	3 (3=41-60%)	2 (2=21-40%)	4 (4=61-80%)	2 (2=21-40%)
Fc1cccc(-c2cc(C(F)F)no2)c1Oc1ncc(Cl)s1 [Compound 1.010]	4 (4=61-80%)	5 (5=81-100%)	4 (4=61-80%)	4 (4=61-80%)	4 (4=61-80%)	3 (3=41-60%)
Cc1cccc(-c2cc(C(F)F)no2)c1Oc1ncc(Cl)s1 [Compound 1.011]	1 (1=0-20%)	4 (4=61-80%)	4 (4=61-80%)	3 (3=41-60%)	2 (2=21-40%)	3 (3=41-60%)
N#Cc1cccc(Oc2ncc(Cl)s2)c1-c1cc(C(F)F)no1 [Compound 1.012]	5 (5=81-100%)	2 (2=21-40%)	4 (4=61-80%)	4 (4=61-80%)	5 (5=81-100%)	3 (3=41-60%)
N#Cc1cccc(Oc2ncc(Br)s2)c1-c1cc(C(F)F)no1 [Compound 1.013]	4 (4=61-80%)	2 (2=21-40%)	4 (4=61-80%)	3 (3=41-60%)	5 (5=81-100%)	2 (2=21-40%)
N#Cc1cccc(Oc2ncc(C(F)F)s2)c1-c1cc(C(F)F)no1 [Compound 1.014]	5 (5=81-100%)	3 (3=41-60%)	5 (5=81-100%)	4 (4=61-80%)	3 (3=41-60%)	3 (3=41-60%)
FC(F)c1cc(-c2c(Cl)cccc2Oc2ncc(C(F)F)s2)on1 [Compound 1.019]	5 (5=81-100%)	2 (2=21-40%)	5 (5=81-100%)	5 (5=81-100%)	4 (4=61-80%)	4 (4=61-80%)
FC(F)c1cc(-c2c(Br)cccc2Oc2ncc(C(F)F)s2)on1 [Compound 1.020]	5 (5=81-100%)	1 (1=0-20%)	5 (5=81-100%)	5 (5=81-100%)	4 (4=61-80%)	4 (4=61-80%)
FC(F)c1cc(-c2ccccc2Oc2ncc(C(F)F)s2)on1 [Compound 1.021]	4 (4=61-80%)	3 (3=41-60%)	4 (4=61-80%)	3 (3=41-60%)	4 (4=61-80%)	1 (1=0-20%)
FC(F)c1cc(-c2c(Cl)cccc2Oc2ncc(Cl)s2)on1 [Compound 1.022]	5 (5=81-100%)	5 (5=81-100%)	5 (5=81-100%)	5 (5=81-100%)	5 (5=81-100%)	5 (5=81-100%)
FC(F)c1cc(-c2c(Br)cccc2Oc2ncc(Cl)s2)on1 [Compound 1.023]	5 (5=81-100%)	5 (5=81-100%)	5 (5=81-100%)	5 (5=81-100%)	5 (5=81-100%)	5 (5=81-100%)
FC(F)c1cc(-c2c(Br)cccc2Oc2ncc(Br)s2)on1 [Compound 1.024]	4 (4=61-80%)	4 (4=61-80%)	5 (5=81-100%)	5 (5=81-100%)	5 (5=81-100%)	5 (5=81-100%)
FC(F)c1cc(-c2c(Cl)cccc2Oc2ncc(Br)s2)on1 [Compound 1.025]	5 (5=81-100%)	5 (5=81-100%)	5 (5=81-100%)	5 (5=81-100%)	5 (5=81-100%)	5 (5=81-100%)
FC(F)c1cc(-c2ccccc2Oc2ncc(Cl)s2)on1 [Compound 1.026]	4 (4=61-80%)	4 (4=61-80%)	4 (4=61-80%)	4 (4=61-80%)	4 (4=61-80%)	4 (4=61-80%)

Reference: US12662476B2, “Herbicidal thiazole compounds” (SYNGENTA CROP PROTECTION AG, priority 2019, dated 2026)
